Test results from patent publication US6509359B1, “Pyrrolidin-2-one compounds and their use as neuraminidase inhibitors” (priority 1997, dated 2003).

Experiments:
[1] = molecular target: neuraminidase from the H1N9 strain of influenza (Influenza A virus, UniProt P03472); assay: biochemical
[2] = molecular target: influenza neuraminidase (N2) (Influenza A virus, UniProt P06820); assay: biochemical; format: biochemical, influenza virus Type A
HA = conditions: cited from earlier work
[3] = cited from earlier work
[4] = molecular target: Influenza NA Type B B/Lee (Influenza B virus, UniProt P03474); assay: Inhibition of influenza neuraminidase (B/Lee); format: biochemical
Oral bioavailability = format: in vivo

## CCC(CC)Nc1cc(C(=O)O)ccc1N1CCCC1=O [Example 7, 1-[4-Carboxy-2-(3-pentylamino)phenyl]pyrrolidin-2-one]
[1]
  IC50: 220 µM

## CCC(=O)Nc1cc(C(=O)O)ccc1N1C(=O)CCC1(CO)CO [Example 14, 1-[4-Carboxy-2-(ethylcarbonylamino)phenyl]-5,5-bis(hydroxymethyl)pyrrolidin-2-one]
[2]
  IC50: 1.5 µM

## CCC(CC)CNc1cc(C(=O)O)ccc1N1C(=O)CCC1(CO)CO [Example 11, 1-{4-Carboxy-2-[3-pentyl)methylaminolphenyl}-5,5-bis-(hydroxymethyl)pyrrolidin-2-one.]
[2]
  IC50: 3.5 µM

## CC(=O)N[C@H]1[C@H]([C@H](O)[C@H](O)CO)OC(C(=O)O)=C[C@@H]1O [DANA, 2-deoxy-2,3-didehydro-N-acetylneuraminic acid]
HA
  Inhibition in vitro: inhibit HA in vitro
[3]
  Activity in vivo: inactive in vivo

## O=C(O)c1ccc(N2C(=O)CCC2(CO)CO)cc1 [Example 5, 1-(4-Carboxyphenyl)-5,5-bis-(hydroxymethyl)pyrrolidin-2-one]
[1]
  IC50: 700 µM

## N=C(N)Nc1cc(C(=O)O)ccc1N1C(=O)CCC1(CO)CO [Example 6, 1-{2-{[(Amino)(imino)methyl]amino}-4-carboxyphenyl}-5,5-bis-(hydroxymethyl)-pyrrolidin-2-one]
[1]
  IC50: 5 µM

## NCC1CCC(=O)N1c1ccc(C(=O)O)cc1N=C(N)N (stereo not shown) [Example 4, 1-1-{2-{[(Amino)(imino)methyl]amino}-4-carboxyphenyl}-5-(aminomethyl)pyrrolidin-2-one]
[1]
  IC50: 2600 µM

## CCC(CC)Nc1cc(C(=O)O)ccc1N1C(=O)CCC1(CO)CO [Example 8, 1-[4-Carboxy-2-(3-pentylamino)phenyl]-5,5-bis-(hydroxymethyl)pyrrolidin-2-one]
[2]
  IC50: 0.071 µM
[4]
  IC50: 93 µM
[1]
  IC50: 0.048 µM
Oral bioavailability
  Oral bioavailability: orally bioavailable

## CCCC(CCC)Nc1cc(C(=O)O)ccc1N1C(=O)CCC1(CO)CO [Example 10, 1-[4-Carboxy-2-(4-heptylamino)phenyl]-5,5-bis-(hydroxymethyl)pyrrolidin-2-one]
[2]
  IC50: 8.1 µM
[1]
  IC50: 5.5 µM

## O=C(O)c1ccc(N2CCCC2=O)cc1 [Example 1, 1-(4-Carboxyphenyl)pyrrolidin-2-one]
[1]
  IC50: > 7000 µM
other
  melting point: 244 to 246 °C

## CCC(CC)C(=O)Nc1cc(C(=O)O)ccc1N1C(=O)CCC1(CO)CO [Example 16]
[2]
  IC50: 0.82 µM

## CCC(C)C(=O)Nc1cc(C(=O)O)ccc1N1C(=O)CCC1(CO)CO (stereo not shown) [Example 15, 1-{[4-Carboxy-2-(1-methylpropyl)carbonylamino]pheny}-5,5-bis(hydroxymethyl)-pyrrolidin-2-one]
[2]
  IC50: 0.18 µM

## CCCNc1cc(C(=O)O)ccc1N1C(=O)CCC1(CO)CO [Example 12]
[2]
  IC50: 15.5 µM

## CCC(CC)Nc1cc(C(=O)O)ccc1N1C(=O)CCC1(CN)CO (stereo not shown) [Compound B]
[2]
  Effectiveness relative to example 8 for the inhibition of influenza neuraminidase (N2): approximately twice as effective as example 8
  IC50: 0.04 µM
[4]
  IC50: 49 µM

## CCCC(CC)Nc1cc(C(=O)O)ccc1N1C(=O)CCC1(CO)CO (stereo not shown) [Example 9, 1-[4-Carboxy-2-(3-hexylamino)phenyl]-5,5-bis-(hydroxymethyl)pyrrolidin-2-one]
[1]
  IC50: 116 µM

## CCC(C)C(=O)Nc1cc(C(=O)O)ccc1N1C(=O)CCC1(CN)CO (stereo not shown) [Example 17, 5-Aminomethyl-1-{[4-carboxy-2-(1-methylpropyl)carbonylamino]phenyl}-5-hydroxymethylpyrrolidin-2-one]
[2]
  IC50: 6 µM

## CCC(CC)Nc1cc(C(=O)O)ccc1N1C(=O)CCC1(CO)CCO (stereo not shown) [Example 18, 1-[4-Carboxy-2-(1-ethylpropylamino)phenyl]-5-hydroxyethyl-5-hydroxymethyl-pyrrolidin-2-one]
[2]
  IC50: 184 µM
